The values that follow come from patent US5952335A, “Fused polycyclic heterocycle derivatives” (Eisai Co., Ltd., priority 1995, dated 1999).

pIC50: −log10 of the molar value. Where a name gives a salt, the structure may show the parent alone. Read-outs that look alike come from different tables or passages of the source.

For data set [1] the following is noted: cited from earlier work.
Data set [2] has as its system P388 cells. The data set can be described thus: in vitro Antitumor Test on P388 Cells (Mouse Leukemic Cells), MTT, 3 days. It counts as cell-based. The note with it: 72 h, 3 days incubation. As to the method:
P388 cells suspended in RPMI1640 medium (manufactured by Sanko Junyaku) containing 10% of fetal calf serum, (100 U/ml) of penicillin, 100 μg/ml of streptomycin, 5×10^-5 M of mercaptoethanol and 1 mM of sodium pyruvate were pipetted into a 96-well U-bottomed microplate at a ratio of 1.25×10^3 cells (0.1 ml) per well and incubated in a incubator containing 5% of carbon dioxide at 37° C. for a day. A compound of the present invention was dissolved in dimethyl sulfoxide to give a concentration of 10^-2 M and then diluted with the 10% fetal calf serum-containing RPMI1640 culture medium to give a concentration of 10^-4 or 10^-5 M. By taking this concentration as the maximal level, threefold serial dilution was effected with the use of the 10% fetal calf serum-containing RPMI1640 culture medium. Then these dilutions were added to the P388 incubation plate as described above at a ratio of 0.1 ml per well followed by incubation in an incubator containing 5% of carbon dioxide at 37° C. for 3 days. After the completion of the incubation, 0.05 ml/well of a 3.3 mg/ml solution of MTT [3-(4,5-dimethylthiazol-2-yl)-2,5-diphenyltetrazolium bromide] was added thereto and the incubation was continued for additional 2 hours. The microplate was centrifuged and the supernatant was aspirated off from each well. Then the formazan thus formed was dissolved in 0.1 ml of dimethyl sulfoxide and the absorbance thereof at 540 nm measured with a microplate reader was taken as an indication of the viable cell count. In accordance with the following formula, the inhibitory ratio was calculated and the 50% inhibitory concentration (IC50) of the test compound was determined: [formula] wherein T means the absorbance of a well containing the test compound; and C means the absorbance of a well containing no test compound.

Data set [3] has as its system MX-1 (Human Mammary Cancer). The data set can be described thus: in vivo Antitumor Test on MX-1 (Human Mammary Cancer) transplanted in nude mice. The note with it: Mus musculus, ip, 528 h, i.p.; for responders at 25 mg/kg / inhibition in vivo at 25 mg/kg: 25 mg/kg/day; for responders at 15 mg/kg / inhibition in vivo at 15 mg/kg: 15 mg/kg/day. As to the method: MX-1 tumor pieces (about 1 mm^3) were subcutaneously transplanted into the side part of each nude mouse (BALB/C.nu/nu, 6 to 7 weeks, female). A compound of the present invention was dissolved in a 5% solution of glucose. When the tumor volume reached 50 mm^3 (on the about 10th day after the transplantation), the solution of the compound was intraperitoneally administered to the animals once a day in accordance with each schedule. On the other hand, a 5% solution of glucose was administered to the control group. The control group had 10 animals, while each test group had 5 animals. On the 22nd day after the transplantation, tumors were taken out and weighed. The tumor multiplication inhibitory ratio of each test group to the control group was determined in accordance with the following formula: [formula] wherein T means the average tumor weight of the test group; and C means the average tumor weight of the control group.

For data set [4], the system named is M5076 (Mouse Reticulum Cell Sarcoma). Description: in vivo Antitumor Test on M5076 (Mouse Reticulum Cell Sarcoma) transplanted in BDF1 mice. The note with it: M5076, ip, 504 h, i.p.; for survival rate on day 21 at 25 mg/kg / inhibition in vivo at 25 mg/kg: 25 mg/kg/day, d9 after transplantation. As to the method: M5076 cells (1×10^6 /animal) were subcutaneously transplanted into the side part of each BDF1 mouse (aged 6 to 7 weeks, female). A compound of the present invention was dissolved in a 5% solution of glucose. From the next day of the transplantation, the solution of the compound was intraperitoneally administered to the animals once a day in accordance with each schedule. On the other hand, a 5% solution of glucose was administered to the control group. The control group had 10 animals, while each test group had 5 animals.
On the 21st day after the transplantation, tumors were taken out and weighed. The tumor multiplication inhibitory ratio of each test group to the control group was determined in accordance with the following formula: [formula] wherein T means the average tumor weight of the test group; and C means the average tumor weight of the control group.

For data set [5] the following is noted: Drugs Fut., 17, 832 (1992), cited from earlier work.
[6] abbreviates: Farmaco, 47, 1035 (1992), J. Med. Chem., 37, 593 (1994).
Setting [7] is: q7d × 3, read-out: Survival rate on the judgement day (22th day).
The mark [8] stands for this setting: q7d × 3, tumor weight day 22, read-out: Proliferation inhibitory ratio (%).
Setting [9] is: read-out: Survival rate on the judgement day (21th day).
Where [10] appears, read: tumor weight day 21, read-out: Proliferation inhibitory ratio (%).

In the case of “2,3-dihydro-2-[2-(dimethylamino)ethyl]-1H,7H-naphthylidino[3,2,1-ij]quinazoline-1,3,7(2H)-trione”, in data set [1] (setting [6]), the “antitumor activity in preclinical tests” value is listed as “only a weak antitumor activity in preclinical tests”.

Take `CN(C)CCn1c(=O)c2cccc3c(=O)c4ccccc4n(c1=O)c32` [2-[2-(dimethylamino)ethyl]pyrimid[5,6,1-de]acridine-1,3,7-trione]: the “antitumor activity in preclinical tests” value in data set [1] (setting [6]) is “only a weak antitumor activity in preclinical tests”.

`CN(C)CCn1c(=O)c2cccc3c4c5ccccc5ccc4n(c1=O)c23` [Example 1, 5-[2-(Dimethylamino)ethyl]-4H-benzo[c]pyrimido[5,6,1-jk]carbazole-4,6(5H)-dione hydrochloride] gave a pIC50 in data set [2] of 6.54. The responders at 25 mg/kg in data set [3] (q4d × 4, read-out: Survival rate on the judgement day (22th day)) came out at 100%. Also, in data set [3] (q4d × 4, tumor weight day 22, read-out: Proliferation inhibitory ratio (%)), the inhibition in vivo at 25 mg/kg turned out to be 48%. For the same compound, in data set [4] (50 mg/kg/day, d1,2,3,4 after transplantation, read-out: Survival rate on the judgement day (21th day)), the survival rate on day 21 at 50 mg/kg came to 100%. Moreover, in data set [4] (50 mg/kg/day, d1,2,3,4 after transplantation, tumor weight day 21, read-out: Proliferation inhibitory ratio (%)), the inhibition in vivo at 50 mg/kg is 95.2%.

In turn, `CC(=O)c1ccc2c(ccc3c2c2cccc4c(=O)n(CCN(C)C)c(=O)n3c42)c1` [Example 2, 11-Acetyl-5-[2-(dimethylamino)ethyl]-4H-benzo[c]pyrimido[5,6,1-jk]carbazole-4,6(5H)-dione hydrochloride] showed a pIC50 in data set [2] of 7.15. The responders at 25 mg/kg in data set [3] (setting [7]) was found to be 100%. In addition, the figures for the inhibition in vivo at 25 mg/kg in data set [3] (setting [8]) and in data set [4] (setting [10]) were 63.3% and 91.4%, respectively. In addition, in data set [4] (setting [9]), the survival rate on day 21 at 25 mg/kg stood at 100%.

The compound `CC(O)c1ccc2c(ccc3c2c2cccc4c(=O)n(CCN(C)C)c(=O)n3c42)c1` (centres unmarked) [Example 3, 5-[2-(Dimethylamino)ethyl]-11-(1-hydroxyethyl)-4H-benzo[c]pyrimido[5,6,1-jk]carbazole-4,6(5H)-dione hydrochloride] showed a pIC50 in data set [2] of 7.59. The responders at 20 mg/kg in data set [3] (20 mg/kg/day, q7d × 3, read-out: Survival rate on the judgement day (22th day)) was found to be 100%. In addition, in data set [3] (20 mg/kg/day, q7d × 3, tumor weight day 22, read-out: Proliferation inhibitory ratio (%)), the inhibition in vivo at 20 mg/kg amounted to 55.7%. The survival rate on day 21 at 25 mg/kg in data set [4] (setting [9]) stood at 100%. Moreover, in data set [4] (setting [10]), the inhibition in vivo at 25 mg/kg was found to be 90%.

For `CN(C)CCn1c(=O)c2cccc3c4c5c(ccc4n(c1=O)c23)C(=O)CCC5` [Example 4, 12,13-Dihydro-5-[2-(dimethylamino)ethyl]-4H-benzo[c]pyrimido[5,6,1-jk]carbazole-4,6,10(5H,11H)-trione hydrochloride], in data set [2], the pIC50 is 7.52. Besides, the responders at 15 mg/kg in data set [3] (setting [7]) is 100%. Moreover, the inhibition in vivo at 15 mg/kg in data set [3] (setting [8]) is 98.4%. Further, the survival rate on day 21 at 12.5 mg/kg in data set [4] (12.5 mg/kg/day, d1,8,15 after transplantation, read-out: Survival rate on the judgement day (21th day)) came out at 100%. Also, in data set [4] (12.5 mg/kg/day, d1,8,15 after transplantation, tumor weight day 21, read-out: Proliferation inhibitory ratio (%)), the inhibition in vivo at 12.5 mg/kg was 100%. In data set [4] (setting [9]), the survival rate on day 21 at 25 mg/kg is 100%. Besides, the inhibition in vivo at 25 mg/kg in data set [4] (setting [10]) was determined as 89.2%.

The compound `CN(C)CCn1c(=O)c2cccc3c4c5c(ccc4n(c1=O)c23)C(=O)CC5` [Example 7, 11,12-Dihydro-5-[2-(dimethylamino)ethyl]-4H,10H-ccylopenta[c]pyrimido[5,6,1-jk]carbazole-4,6,10(5H)-trione hydrochloride] had a pIC50 in data set [2] of 7.51. For the same compound, the responders at 15 mg/kg in data set [3] (setting [7]) worked out at 100%. For the same compound, the inhibition in vivo at 15 mg/kg in data set [3] (setting [8]) was 73.2%.

The compound `CN(C)CCn1c(=O)c2cccc3c4c5c(ccc4n(c1=O)c23)C(=O)CO5` [Example 8, 8-[2-(Dimethylamino)ethyl]-7H-furo[3,2-c]pyrimido[5,6,1-jk]carbazole-3,7,9(2H,8H)-trione hydrochloride] gave a pIC50 in data set [2] of 6.47. Besides, in data set [3] (setting [7]), the responders at 25 mg/kg came to 100%. In addition, the inhibition in vivo at 25 mg/kg in data set [3] (setting [8]) came out at 94%. For the same compound, the survival rate on day 21 at 30 mg/kg in data set [4] (30 mg/kg/day, d1,8,15 after transplantation, read-out: Survival rate on the judgement day (21th day)) is 100%. In data set [4] (30 mg/kg/day, d1,8,15 after transplantation, tumor weight day 21, read-out: Proliferation inhibitory ratio (%)), the inhibition in vivo at 30 mg/kg stood at 99.9%.

In data set [2], `CNCCn1c(=O)c2cccc3c4c5c(ccc4n(c1=O)c23)C(=O)CCC5` [Example 10, 12,13-Dihydro-5-[2-(methylamino)ethyl]-4H-benzo[c]pyrimido[5,6,1-jk]carbazole-4,6,10(5H,11H)-trione hydrochloride] had a pIC50 of 8.07. For the same compound, in data set [3] (10 mg/kg/day, q7d × 3, read-out: Survival rate on the judgement day (22th day)), the responders at 10 mg/kg came to 100%. For the same compound, the inhibition in vivo at 10 mg/kg in data set [3] (10 mg/kg/day, q7d × 3, tumor weight day 22, read-out: Proliferation inhibitory ratio (%)) is 59.7%.

Consider `O=C1CCCc2c1ccc1c2c2cccc3c(=O)n(CCN4CCCC4)c(=O)n1c32` [Example 11, 12,13-Dihydro-5-[2-(1-pyrrolidinyl)ethyl]-4H-benzo [c]pyrimido[5,6,1-jk]carbazole-4,6,10(5H,11H)-trione hydrochloride], for which the pIC50 in data set [2] is 7.38. Further, the responders at 30 mg/kg in data set [3] (30 mg/kg/day, q7d × 3, read-out: Survival rate on the judgement day (22th day)) is 100%. In data set [3] (30 mg/kg/day, q7d × 3, tumor weight day 22, read-out: Proliferation inhibitory ratio (%)), the inhibition in vivo at 30 mg/kg worked out at 82.5%.

For `CN(C)CCN1C(=O)c2cccc3cc(N)cc(c23)C1=O` [amonafide, 5-amino-2-[2-(dimethylamino)ethyl]-1H-benz[de]isoquinoline-1,3(2H)-dione], the “efficacy in clinical tests” value in data set [5] is given as “poor efficacy in clinical tests”. In data set [5] (clinical tests), the bone marrow toxicity entry is recorded as “strong bone marrow toxicity”.

Turning to `CN(C)CCN1C(=O)c2cccc3cc4ccccc4c(c23)C1=O` [azonafide, 2-[2'-(dimethylamino)ethyl]-1,2-dihydro-3H-dibenz(deh)-isoquinoline-1,3-dione], the “antitumor activity in preclinical tests” value in data set [1] (compared with amonafide, WO9200281) is reported as “enhance the antitumor activity in preclinical tests”.
